# Reference: patent publication US10618903B2, “Heteroaryl substituted aminopyridine compounds” (BRISTOL-MYERS SQUIBB COMPANY, priority 2015, dated 2020)
# Target: IRAK4 (Homo sapiens (Human), UniProt Q9NWZ3)
# Assay: IRAK4 Inhibition Assay
# Type: biochemical
# Conditions: ATP 500 μM; IRAK4 0.6 nM
# Procedure: The assays were performed in U-bottom 384-well plates. The final assay volume was 30 μL prepared from 15 μL additions of enzyme and substrates (fluoresceinated peptide and ATP) and test compounds in assay buffer (20 mM HEPES pH 7.2, 10 mM MgCl2, 0.015% Brij 35 and 4 mM DTT). The reaction was initiated by the combination of IRAK4 with substrates and test compounds. The reaction mixture was incubated at room temperature for 60 min. and terminated by adding 45 μL of 35 mM EDTA to each sample. The reaction mixture was analyzed on the Caliper LABCHIP® 3000 (Caliper, Hopkinton, Mass.) by electrophoretic separation of the fluorescent substrate and phosphorylated product. Inhibition data were calculated by comparison to no enzyme control reactions for 100% inhibition and vehicle-only reactions for 0% inhibition. The final concentrations of reagents in the assays are ATP, 500 μM; FL-IPTSPITTTYFFFKKK peptide 1.5 μM; IRAK4, 0.6 nM; and DMSO, 1.6%.
# Chain of IRAK4 (Q9NWZ3 whole entry): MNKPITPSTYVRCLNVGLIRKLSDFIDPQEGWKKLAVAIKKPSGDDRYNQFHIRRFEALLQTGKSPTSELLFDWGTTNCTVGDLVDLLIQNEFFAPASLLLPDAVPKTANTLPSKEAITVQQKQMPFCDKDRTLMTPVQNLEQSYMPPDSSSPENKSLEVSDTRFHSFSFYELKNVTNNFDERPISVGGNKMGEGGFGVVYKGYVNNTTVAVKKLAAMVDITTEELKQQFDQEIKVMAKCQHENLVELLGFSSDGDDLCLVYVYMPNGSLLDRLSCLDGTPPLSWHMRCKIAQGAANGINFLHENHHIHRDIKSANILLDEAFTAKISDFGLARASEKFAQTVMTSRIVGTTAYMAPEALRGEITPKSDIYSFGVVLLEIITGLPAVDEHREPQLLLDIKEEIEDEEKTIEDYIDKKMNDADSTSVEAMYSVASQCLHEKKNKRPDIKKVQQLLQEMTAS
row,Compound,IC50 [nM]
1,"COC1CC(Nc2cc(-c3cnn4cc(Cl)cnc34)ncc2C(=O)NC[C@@H](F)C(C)(C)O)CC1(F)F (single isomer, unassigned) [Example 14]",22
2,"CC(C)Nc1cc(-c2cnn3cc(Cl)cnc23)ncc1C(=O)NCC(F)C(O)(CO)CO (centres unmarked) [Example 8, 6-(6-chloropyrazolo[1,5-a]pyrimidin-3-yl)-N-(2-fluoro-3,4-dihydroxy-3-(hydroxymethyl)butyl)-4-(isopropylamino)nicotinamide]",24
3,"CC(C)Nc1cc(-c2cnn3cc(Cl)cnc23)ncc1C(=O)NCC(F)C1(O)COC1 (centres unmarked) [Example 9, 6-(6-chloropyrazolo[1,5-a]pyrimidin-3-yl)-N-(2-fluoro-2-(3-hydroxyoxetan-3-yl)ethyl)-4-(isopropylamino)nicotinamide]",5
4,"CC(C)Nc1cc(-c2cnn3cc(Cl)cnc23)ncc1C(=O)Nc1cnn(CC(=O)NC[C@@H](F)C(C)(C)O)c1 [Example 10, (R)-6-(6-chloropyrazolo[1,5-a]pyrimidin-3-yl)-N-(1-(2-((2-fluoro-3-hydroxy-3-methylbutyl)amino)-2-oxoethyl)-1H-pyrazol-4-yl)-4-(isopropylamino)nicotinamide]",99
5,"CO[C@H]1CC[C@H](NC(=O)c2cnc(-c3cnn4cc(Cl)cnc34)cc2NC(C)C)CC1 [Example 11, 6-(6-chloropyrazolo[1,5-a]pyrimidin-3-yl)-4-(isopropylamino)-N-((1R,4R)-4-methoxycyclohexyl)nicotinamide]",14
6,"CC(C)(F)CCNC(=O)c1cnc(-c2cnn3cc(Cl)cnc23)cc1NC1COC1 [Example 12, 6-(6-chloropyrazolo[1,5-a]pyrimidin-3-yl)-N-(3-fluoro-3-methylbutyl)-4-(oxetan-3-ylamino)nicotinamide]",92
7,"COC1CCC(F)(CCNC(=O)c2cnc(-c3cnn4cc(Cl)cnc34)cc2NC2COC2)CC1 (centres unmarked) [Example 17, 6-(6-chloropyrazolo[1,5-a]pyrimidin-3-yl)-N-(2-(1-fluoro-4-methoxycyclohexyl)ethyl)-4-(oxetan-3-ylamino)nicotinamide]",19
8,"CNC(=O)[C@H]1CC[C@H](NC(=O)c2cnc(-c3cnn4cc(Cl)cnc34)cc2NCC(C)(C)F)CC1 [Example 24, 6-(6-chloropyrazolo[1,5-a]pyrimidin-3-yl)-4-((2-fluoro-2-methylpropyl)amino)-N-((1r,4r)-4-(methylcarbamoyl)cyclohexyl)nicotinamide]",35
9,"CC(C)Nc1cc(-c2cnn3cc(Cl)cnc23)ncc1C(=O)NCCc1ccc(S(N)(=O)=O)cc1 [Example 26, 6-(6-chloropyrazolo[1,5-a]pyrimidin-3-yl)-4-(isopropylamino)-N-(4-sulfamoylphenethyl)nicotinamide]",8
10,"CC(C)Nc1cc(-c2cnn3cc(Cl)cnc23)ncc1C(=O)N[C@H]1CC[C@H](C(=O)NC(C)C)CC1 [Example 29, 6-(6-chloropyrazolo[1,5-a]pyrimidin-3-yl)-4-(isopropylamino)-N-((1r,4r)-4-(isopropylcarbamoyl)cyclohexyl)nicotinamide]",24
11,"CC(C)(O)[C@H](F)CNC(=O)c1cnc(-c2cnn3cc(Cl)cnc23)cc1N[C@@H]1CCN(c2ncc(F)cn2)C1 [Example 36, 6-(6-chloropyrazolo[1,5-a]pyrimidin-3-yl)-N—((R)-2-fluoro-3-hydroxy-3-methylbutyl)-4-(((R)-1-(5-fluoropyrimidin-2-yl)pyrrolidin-3-yl)amino)nicotinamide]",5
12,"CC1(CNc2cc(-c3cnn4cc(Cl)cnc34)ncc2C(=O)NC[C@@H](F)C(C)(C)O)COC1 [Example 38, (R)-6-(6-chloropyrazolo[1,5-a]pyrimidin-3-yl)-N-(2-fluoro-3-hydroxy-3-methylbutyl)-4-(((3-methyloxetan-3-yl)methyl)amino)nicotinamide]",7
13,"CC(C)(O)[C@H](F)CNC(=O)c1cnc(-c2cnn3cc(Cl)cnc23)cc1NCC1(O)COC1 [Example 39, (R)-6-(6-chloropyrazolo[1,5-a]pyrimidin-3-yl)-N-(2-fluoro-3-hydroxy-3-methylbutyl)-4-(((3-hydroxyoxetan-3-yl)methyl)amino)nicotinamide]",18
14,"CC(C)(O)[C@H](F)CNC(=O)c1cnc(-c2cnn3cc(Cl)cnc23)cc1N[C@@H]1COC[C@H]1O [Example 42, 6-(6-chloropyrazolo[1,5-a]pyrimidin-3-yl)-N—((R)-2-fluoro-3-hydroxy-3-methylbutyl)-4-(((3R,4S)-4-hydroxytetrahydrofuran-3-yl)amino) nicotinamide]",8
15,"CC(C)(O)[C@H](F)CNC(=O)c1cnc(-c2cnn3cc(Cl)cnc23)cc1N[C@@H]1COC[C@H]1F [Example 43, 6-(6-chloropyrazolo[1,5-a]pyrimidin-3-yl)-N—((R)-2-fluoro-3-hydroxy-3-methylbutyl)-4-(((3R,4S)-4-fluorotetrahydrofuran-3-yl)amino)nicotinamide]",17
16,"CNC(=O)Cn1cc(NC(=O)c2cnc(-c3cnn4cc(Cl)cnc34)cc2NC(C)C)cn1 [Example 45, 6-(6-chloropyrazolo[1,5-a]pyrimidin-3-yl)-4-(isopropylamino)-N-(1-(2-(methylamino)-2-oxoethyl)-1H-pyrazol-4-yl)nicotinamide]",34
17,"CC(C)(O)[C@H](F)CNC(=O)c1cnc(-c2cnn3cc(Cl)cnc23)cc1NC1CCOC1 (stereo partly drawn) [Example 53, 6-(6-chloropyrazolo[1,5-a]pyrimidin-3-yl)-N—((R)-2-fluoro-3-hydroxy-3-methylbutyl)-4-((tetrahydrofuran-3-yl)amino)nicotinamide]",4
18,"CC(C)(O)[C@H](F)CNC(=O)c1cnc(-c2cnn3cc(Cl)cnc23)cc1NC1CCOC1 (stereo partly drawn) [Example 54, 6-(6-chloropyrazolo[1,5-a]pyrimidin-3-yl)-N—((R)-2-fluoro-3-hydroxy-3-methylbutyl)-4-((tetrahydrofuran-3-yl)amino)nicotinamide]",3

# More lines, now with the values ahead:
row,IC50 [nM],Compound
1,21,"CC(C)(O)[C@H](F)CNC(=O)c1cnc(-c2cnn3cc(C#N)cnc23)cc1N[C@H]1COC[C@@H]1F (single isomer, unassigned) [Example 116]"
2,39,"CC(C)(O)[C@H](F)CNC(=O)c1cnc(-c2cnn3cc(C#N)cnc23)cc1N[C@H]1COC[C@@H]1F (single isomer, unassigned) [Example 117]"
3,30,"CC(C)(O)[C@H](F)CNC(=O)c1cnc(-c2cnn3cc(C#N)cnc23)cc1NCC1(O)CCCOC1 (single isomer, unassigned) [Example 122]"
4,42,"CC(C)(O)[C@H](F)CNC(=O)c1cnc(-c2cnn3cc(C#N)cnc23)cc1NCC1(O)CCCOC1 (single isomer, unassigned) [Example 123]"
5,92,"CC(C)(O)[C@H](F)CNC(=O)c1cnc(-c2cnc3cccnn23)cc1NC1COCC1O (single isomer, unassigned) [Example 134]"
6,44,"CC(C)(O)[C@H](F)CNC(=O)c1cnc(-c2cnc3cccnn23)cc1NC1COCC1O (single isomer, unassigned) [Example 135]"
7,9,"CC(C)Nc1cc(-c2cnn3cc(Cl)cnc23)ncc1C(=O)NCCC1(O)CCC(C)(O)CC1 (centres unmarked) [Example 55, 6-(6-chloropyrazolo[1,5-a]pyrimidin-3-yl)-N-(2-(1,4-dihydroxy-4-methylcyclohexyl)ethyl)-4-(isopropylamino)nicotinamide]"
8,6,"CC(C)(O)[C@H](F)CNC(=O)c1cnc(-c2cnn3cc(Cl)cnc23)cc1N[C@H]1C[C@H](C(C)(C)O)C1 [Example 59, 6-(6-chloropyrazolo[1,5-a]pyrimidin-3-yl)-N—((R)-2-fluoro-3-hydroxy-3-methylbutyl)-4-(((1r,3R)-3-(2-hydroxypropan-2-yl)cyclobutyl)amino)nicotinamide]"
9,47,"CC(C)Nc1cc(-c2cnn3cc(Cl)cnc23)ncc1C(=O)NCCC(=O)N1CCOCC1 [Example 62, 6-(6-chloropyrazolo[1,5-a]pyrimidin-3-yl)-4-(isopropylamino)-N-(3-morpholino-3-oxopropyl)nicotinamide]"
10,8,"CC(C)Nc1cc(-c2cnn3cc(Cl)cnc23)ncc1C(=O)NCC(=O)N1CCC2(CCO2)CC1 [Example 63, 6-(6-chloropyrazolo[1,5-a]pyrimidin-3-yl)-4-(isopropylamino)-N-(2-oxo-2-(1-oxa-7-azaspiro[3.5]nonan-7-yl)ethyl)nicotinamide]"
11,5,"CC(C)(O)[C@H](F)CNC(=O)c1cnc(-c2cnn3cc(Cl)cnc23)cc1NCC(F)(F)F [Example 64, (R)-6-(6-chloropyrazolo[1,5-a]pyrimidin-3-yl)-N-(2-fluoro-3-hydroxy-3-methylbutyl)-4-((2,2,2-trifluoroethyl)amino)nicotinamide]"
12,2,"CC(C)(C)Nc1cc(-c2cnn3cc(Cl)cnc23)ncc1C(=O)NC[C@@H](F)C(C)(C)O [Example 72, (R)-4-(tert-butylamino)-6-(6-chloropyrazolo[1,5-a]pyrimidin-3-yl)-N-(2-fluoro-3-hydroxy-3-methylbutyl) nicotinamide]"
13,26,"CC(C)Nc1cc(-c2cnn3cc(Cl)cnc23)ncc1C(=O)NC1CCN(S(=O)(=O)C(C)C)CC1 [Example 74, 6-(6-chloropyrazolo[1,5-a]pyrimidin-3-yl)-4-(isopropylamino)-N-(1-(isopropylsulfonyl)piperidin-4-yl)nicotinamide]"
14,99,"CC(C)Nc1cc(-c2cnn3cc(Cl)cnc23)ncc1C(=O)N[C@@H]1CC[C@@H](CO)OC1 [Example 77, 6-(6-chloropyrazolo[1,5-a]pyrimidin-3-yl)-N-((3R,6S)-6-(hydroxymethyl)tetrahydro-2H-pyran-3-yl)-4-(isopropylamino)nicotinamide]"
